In patent publication US8163793B2, “Proline derivatives” (Hoffman-La Roche Inc., priority 2009, dated 2012):

Assays:
Cat L = Cat L (UniProt P07711); assay: Cathepsin enzyme inhibition assay (fluorogenic peptide substrate Z-Val-Val-Arg-AMC), Cathepsin L; assay type: biochemical, human and mouse; conditions: enzyme 1 nM, substrate 20 μM, pH 6.5; read-out: CatL IC50
How it was run: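 Fluorogenic cleavage of Z-Val-Val-Arg-AMC (20 μM) by 1 nM Cat L was monitored at ex 360/em 465 nm for 20 min, the linear phase. The buffer was 100 mM potassium phosphate pH 6.5 with 5 mM EDTA and DTT. IC50 values were derived by standard methods, in μM.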

Cathepsin S = Cathepsin S (UniProt P25774); assay: Cathepsin enzyme inhibition assay (fluorogenic peptide substrate Z-Val-Val-Arg-AMC), Cathepsin S; assay type: biochemical, human and mouse; conditions: enzyme 1 nM, substrate 20 μM, pH 6.5; read-out: CatS IC50
How it was run: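 Compounds were combined with 1 nM human or mouse enzyme, and substrate then started the reaction. The buffer was potassium phosphate (100 mM, pH 6.5) containing EDTA-Na 5 mM, Triton X-100 0.001% and […] 5 mM.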

IC50 (Cat L) [nM]	IC50 (Cathepsin S) [nM]	SMILES
28500	0.3	Cc1cc(N2C[C@H](S(=O)(=O)c3ccccc3C(F)(F)F)C[C@H]2C(=O)NC2(C#N)CC2)n(C2CCC2)n1 [Example 322, (2S,4R)-1-(2-Cyclobutyl-5-methyl-2H-pyrazol-3-yl)-4-(2-trifluoromethyl-benzenesulfonyl)-pyrrolidine-2-carboxylic acid (1-cyano-cyclopropyl)-amide]
4820	0.44	N#CC1(NC(=O)[C@@H]2C[C@@H](S(=O)(=O)c3ccccc3Cl)CN2S(=O)(=O)c2ccc(-c3cnco3)cc2)CC1 [Example 323, (2S,4R)-4-(2-Chloro-benzenesulfonyl)-1-(4-oxazol-5-yl-benzenesulfonyl)-pyrrolidine-2-carboxylic acid (1-cyano-cyclopropyl)-amide]
130	0.16	N#CC1(NC(=O)[C@@H]2C[C@@H](S(=O)(=O)c3ccc(N4CCC4)cc3Cl)CN2C(=O)C2(c3ccc(Cl)cc3)CC2)CC1 [Example 328, (2S,4R)-4-(4-Azetidin-1-yl-2-chloro-benzenesulfonyl)-1-[1-(4-chloro-phenyl)-cyclopropanecarbonyl]-pyrrolidine-2-carboxylic acid (1-cyano-cyclopropyl)-amide]
1050	0.18	N#CC1(NC(=O)[C@@H]2C[C@@H](S(=O)(=O)c3ccc(OCC(F)(F)F)cc3Cl)CN2C(=O)C2(c3cccc(Cl)c3)CC2)CC1 [Example 331, (2S,4R)-1-[1-(3-Chloro-phenyl)-cyclopropanecarbonyl]-4-[2-chloro-4-(2,2,2-trifluoro-ethoxy)-benzenesulfonyl]-pyrrolidine-2-carboxylic acid (1-cyano-cyclopropyl)-amide]
580	0.195	N#CC1(NC(=O)[C@@H]2C[C@@H](S(=O)(=O)c3ccc(OCC(F)(F)F)cc3Cl)CN2C(=O)C2(c3cccc(Br)c3)CC2)CC1 [Example 332, (2S,4R)-1-[1-(3-Bromo-phenyl)-cyclopropanecarbonyl]-4-[2-chloro-4-(2,2,2-trifluoro-ethoxy)-benzenesulfonyl]-pyrrolidine-2-carboxylic acid (1-cyano-cyclopropyl)-amide]
7980	1.9	COc1cccc(-n2nc(C)cc2N2C[C@H](S(=O)(=O)c3ccccc3C(F)(F)F)C[C@H]2C(=O)NC2(C#N)CC2)c1 [Example 333, (2S,4R)-1-[2-(3-Methoxy-phenyl)-5-methyl-2H-pyrazol-3-yl]-4-(2-trifluoromethyl-benzenesulfonyl)-pyrrolidine-2-carboxylic acid (1-cyano-cyclopropyl)-amide]
≥ 25000	780	COc1cccc(-n2nc(C)cc2N2C[C@H](S(=O)(=O)c3ccccc3C(F)(F)F)C[C@@H]2C(=O)NC2(C#N)CC2)c1 [Example 334, (2R,4R)-1-[2-(3-Methoxy-phenyl)-5-methyl-2H-pyrazol-3-yl]-4-(2-trifluoromethyl-benzenesulfonyl)-pyrrolidine-2-carboxylic acid (1-cyano-cyclopropyl)-amide]
≥ 25000	0.484	N#CC1(NC(=O)[C@@H]2C[C@@H](S(=O)(=O)c3ccccc3C(F)(F)F)CN2c2nnc(C(F)(F)F)s2)CC1 [Example 335, (2S,4R)-4-(2-Trifluoromethyl-benzenesulfonyl)-1-(5-trifluoromethyl-[1,3,4]thiadiazol-2-yl)-pyrrolidine-2-carboxylic acid (1-cyano-cyclopropyl)-amide]
13000	1.65	Cc1cc(N2C[C@H](S(=O)(=O)c3ccccc3C(F)(F)F)C[C@H]2C(=O)NC2(C#N)CC2)n(CCc2ccccc2)n1 [Example 337, (2S,4R)-1-(5-Methyl-2-phenethyl-2H-pyrazol-3-yl)-4-(2-trifluoromethyl-benzenesulfonyl)-pyrrolidine-2-carboxylic acid (1-cyano-cyclopropyl)-amide]
≥ 25000	375	Cc1cc(N2C[C@H](S(=O)(=O)c3ccccc3C(F)(F)F)C[C@@H]2C(=O)NC2(C#N)CC2)n(CCc2ccccc2)n1 [Example 338, (2R,4R)-1-(5-Methyl-2-phenethyl-2H-pyrazol-3-yl)-4-(2-trifluoromethyl-benzenesulfonyl)-pyrrolidine-2-carboxylic acid (1-cyano-cyclopropyl)-amide]
≥ 25000	62.5	Cc1cc(N2C[C@H](S(=O)(=O)c3ccccc3C(F)(F)F)C[C@H]2C(=O)NC2(C#N)CC2)n(C(C)(C)C)n1 [Example 339, (2S,4R)-1-(2-tert-Butyl-5-methyl-2H-pyrazol-3-yl)-4-(2-trifluoromethyl-benzenesulfonyl)-pyrrolidine-2-carboxylic acid (1-cyano-cyclopropyl)-amide]
26400	0.975	Cc1cc(N2C[C@H](S(=O)(=O)c3ccccc3C(F)(F)F)C[C@H]2C(=O)NC2(C#N)CC2)n(CC(C)C)n1 [Example 340, (2S,4R)-1-(2-Isobutyl-5-methyl-2H-pyrazol-3-yl)-4-(2-trifluoromethyl-benzenesulfonyl)-pyrrolidine-2-carboxylic acid (1-cyano-cyclopropyl)-amide]
≥ 25000	150	Cc1cc(N2C[C@H](S(=O)(=O)c3ccccc3C(F)(F)F)C[C@@H]2C(=O)NC2(C#N)CC2)n(CC(C)C)n1 [Example 341, (2R,4R)-1-(2-Isobutyl-5-methyl-2H-pyrazol-3-yl)-4-(2-trifluoromethyl-benzenesulfonyl)-pyrrolidine-2-carboxylic acid (1-cyano-cyclopropyl)-amide]
49.5	0.08	COCCOc1ccc(S(=O)(=O)[C@@H]2C[C@@H](C(=O)NC3(C#N)CC3)N(C(=O)C3(c4ccc(Cl)cc4)CC3)C2)c(Cl)c1 [Example 342, (2S,4R)-4-[2-Chloro-4-(2-methoxy-ethoxy)-benzenesulfonyl]-1-[1-(4-chloro-phenyl)-cyclopropanecarbonyl]-pyrrolidine-2-carboxylic acid (1-cyano-cyclopropyl)-amide]
≥ 25000	99.3	N#CC1(NC(=O)C2CC(S(=O)(=O)c3ccccc3C(F)(F)F)CN2c2ccccc2-c2ccccc2)CC1 (stereo not shown) [Example 343, 1-Biphenyl-2-yl-4-(2-trifluoromethyl-benzenesulfonyl)-pyrrolidine-2-carboxylic acid (1-cyano-cyclopropyl)-amide]
≥ 25000	0.54	CC1(C(=O)N2C[C@H](S(=O)(=O)c3ccc(F)cc3C(F)(F)F)C[C@H]2C(=O)NC2(C#N)CC2)CC1 [Example 344, (2S,4R)-4-(4-Fluoro-2-trifluoromethyl-benzenesulfonyl)-1-(1-methyl-cyclopropanecarbonyl)-pyrrolidine-2-carboxylic acid (1-cyano-cyclopropyl)-amide]
70300	0.915	N#CC1(NC(=O)C2CC(S(=O)(=O)c3ccccc3C(F)(F)F)CN2c2cccc3ccccc23)CC1 (stereo not shown) [Example 345, 1-Naphthalen-1-yl-4-(2-trifluoromethyl-benzenesulfonyl)-pyrrolidine-2-carboxylic acid (1-cyano-cyclopropyl)-amide]
28.5	0.101	N#CC1(NC(=O)[C@@H]2C[C@@H](S(=O)(=O)c3ccc(OCC(F)(F)F)cc3Cl)CN2C(=O)C2(c3ccc(Br)cc3)OCCO2)CC1 [Example 346, (2S,4R)-1-[2-(4-Bromo-phenyl)-[1,3]dioxolane-2-carbonyl]-4-[2-chloro-4-(2,2,2-trifluoro-ethoxy)-benzenesulfonyl]-pyrrolidine-2-carboxylic acid (1-cyano-cyclopropyl)-amide]
60	0.855	N#CC1(NC(=O)[C@@H]2C[C@@H](S(=O)(=O)c3ccc(OCC(F)(F)F)cc3Cl)CN2C(=O)C2(c3cccc4ccccc34)CC2)CC1 [Example 347, (2S,4R)-4-[2-Chloro-4-(2,2,2-trifluoro-ethoxy)-benzenesulfonyl]-1-(1-naphthalen-1-yl-cyclopropanecarbonyl)-pyrrolidine-2-carboxylic acid (1-cyano-cyclopropyl)-amide]
51	0.17	N#CC1(NC(=O)[C@@H]2C[C@@H](S(=O)(=O)c3ccc(OCC(F)(F)F)cc3Cl)CN2C(=O)C2(c3ccc4ccccc4c3)CC2)CC1 [Example 348, (2S,4R)-4-[2-Chloro-4-(2,2,2-trifluoro-ethoxy)-benzenesulfonyl]-1-(1-naphthalen-2-yl-cyclopropanecarbonyl)-pyrrolidine-2-carboxylic acid (1-cyano-cyclopropyl)-amide]
220	0.03	N#CC1(NC(=O)[C@@H]2C[C@@H](S(=O)(=O)c3ccc(-n4cnc5cnccc54)cc3Cl)CN2C(=O)C2(c3ccc(Cl)cc3)CC2)CC1 [Example 349, (2S,4R)-4-(2-Chloro-4-imidazo[4,5-c]pyridin-1-yl-benzenesulfonyl)-1-[1-(4-chloro-phenyl)-cyclopropanecarbonyl]-pyrrolidine-2-carboxylic acid (1-cyano-cyclopropyl)-amide]
260	0.06	N#CC1(NC(=O)[C@@H]2C[C@@H](S(=O)(=O)c3ccc(-n4ccc5ncnc-5c4)cc3Cl)CN2C(=O)C2(c3ccc(Cl)cc3)CC2)CC1 [Example 350, (2S,4R)-4-(2-Chloro-4-imidazo[4,5-c]pyridin-5-yl-benzenesulfonyl)-1-[1-(4-chloro-phenyl)-cyclopropanecarbonyl]-pyrrolidine-2-carboxylic acid (1-cyano-cyclopropyl)-amide]
≥ 25000	19.5	Cc1cc(-n2nc(C)cc2N2C[C@H](S(=O)(=O)c3ccccc3C(F)(F)F)C[C@H]2C(=O)NC2(C#N)CC2)cc(C)n1 [Example 351]
